The values that follow come from publication PMC8341910, “Structural and biophysical insights into the mode of covalent binding of rationally designed potent BMX inhibitors” (RSC Chemical Biology, 2020).

“And” between values parts separate entries of the source, which are not always exact repeats. Equal entries are not always repeated.

The target in one test is PIK3CD (Homo sapiens, UniProt O00329). Description: KINOMEscan binding. To be noted: read-out: % Ctrl PIK3CD.
In a further test the target is ABL1-phosphorylated (Homo sapiens, UniProt P00519). In words: KINOMEscan binding. To be noted: read-out: % Ctrl ABL1-phosphorylated.
Another test concerns the target PDPK1 (Homo sapiens, UniProt O15530). In words: KINOMEscan binding. Particulars: read-out: % Ctrl PDPK1.
Another test deals with YES1 (Homo sapiens, UniProt P07947). Description: KINOMEscan binding. Particulars: read-out: % Ctrl YES1.
Chain of YES1 (P07947 whole entry): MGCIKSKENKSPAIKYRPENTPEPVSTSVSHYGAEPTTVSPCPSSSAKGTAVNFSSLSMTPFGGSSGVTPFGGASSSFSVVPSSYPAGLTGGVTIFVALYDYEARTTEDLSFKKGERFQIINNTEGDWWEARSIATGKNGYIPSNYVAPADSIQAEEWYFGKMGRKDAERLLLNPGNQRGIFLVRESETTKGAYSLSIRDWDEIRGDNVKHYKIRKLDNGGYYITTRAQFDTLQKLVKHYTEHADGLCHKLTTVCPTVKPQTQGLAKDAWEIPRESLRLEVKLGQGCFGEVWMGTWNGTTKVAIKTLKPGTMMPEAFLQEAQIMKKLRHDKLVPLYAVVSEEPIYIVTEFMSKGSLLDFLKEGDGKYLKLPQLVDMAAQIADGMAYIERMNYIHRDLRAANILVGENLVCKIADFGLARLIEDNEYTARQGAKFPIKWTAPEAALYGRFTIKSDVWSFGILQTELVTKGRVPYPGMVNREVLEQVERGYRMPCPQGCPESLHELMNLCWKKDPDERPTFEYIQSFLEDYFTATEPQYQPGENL
The next test concerns the target AXL (Homo sapiens, UniProt P30530). Description: KINOMEscan binding. To be noted: read-out: % Ctrl AXL.
Another test addresses PIK3CA (Homo sapiens, UniProt P42336). In words: KINOMEscan binding. To be noted: read-out: % Ctrl PIK3CA.
Another test addresses STK11 (Homo sapiens, UniProt Q15831). Description: KINOMEscan binding. Particulars: read-out: % Ctrl STK11.
The next test deals with T1, BMX (Homo sapiens, UniProt P51813).
T1 sequence (P51813 1-675): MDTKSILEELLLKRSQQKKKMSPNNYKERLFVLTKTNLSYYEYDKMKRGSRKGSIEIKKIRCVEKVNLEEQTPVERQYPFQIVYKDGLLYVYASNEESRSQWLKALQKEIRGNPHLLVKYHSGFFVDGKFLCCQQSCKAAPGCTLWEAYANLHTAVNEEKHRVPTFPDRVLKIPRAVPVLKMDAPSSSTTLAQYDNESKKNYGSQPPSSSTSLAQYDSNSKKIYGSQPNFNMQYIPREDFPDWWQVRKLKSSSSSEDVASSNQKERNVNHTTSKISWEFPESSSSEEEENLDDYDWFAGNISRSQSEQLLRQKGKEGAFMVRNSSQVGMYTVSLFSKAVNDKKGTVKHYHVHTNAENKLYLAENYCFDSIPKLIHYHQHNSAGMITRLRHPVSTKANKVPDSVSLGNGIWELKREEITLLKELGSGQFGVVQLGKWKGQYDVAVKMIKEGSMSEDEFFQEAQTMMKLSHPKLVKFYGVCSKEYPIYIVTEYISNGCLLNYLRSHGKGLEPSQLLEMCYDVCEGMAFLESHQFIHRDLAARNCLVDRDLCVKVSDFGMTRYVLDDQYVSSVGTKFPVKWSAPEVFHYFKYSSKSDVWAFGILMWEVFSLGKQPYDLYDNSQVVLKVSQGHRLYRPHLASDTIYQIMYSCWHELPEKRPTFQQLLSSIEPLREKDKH
In words: Kinetic characterization with ADP-Glo kinase assay. The class given is biochemical. Also on record: purchased Promega Corporation (USA) V4512. To be noted: duplicate, mean ± S.D. An excerpt:
The inactivation of BMX occurs in a two-step process that is governed by two parameters: the affinity of the initial non-covalent binding, KI, and the rate of the subsequent covalent bond-forming reaction with the thiol of the cysteine residue, kinact. […]. […] Thus, taking into account that all the analogues have the same Michael acceptor moiety, the enhanced activity must be a result of the structural modifications introduced in the scaffold. […]
Kinetic characterization using an ADP-GLOTM kinase assay:
The BMX enzyme system (Catalog. V4512) and the ADP-GloTM kinase assay were purchased from Promega Corporation (USA). In each kinase reaction, the concentration of BMX was set to 4.5 ng/µL. The peptide substrate Poly (4:1 Glu, Tyr) and ATP concentrations were set to 0.25 mg/mL and 50 µM, respectively. BMX was pre-incubated with different inhibitor concentrations (10-fold serial dilutions, starting at 1 mM), over different time periods (2 - 60 min), before initiating the kinase reactions. Reactions were started by adding 2.5X Poly E4Y1/ATP mixture. The reactions were carried out in a 384-well plate, stopping all at the same time with the addition of 5 µL of ADP-GloTM reagent, to consume the remaining ATP within 40 min. Then, 10 µL of kinase detection reagent was added into the wells and incubated for 30 min to produce a luminescence signal. The signal was measured using an Infinite M200 […]
observed rate constants for inhibition (kobs), at different inhibitor concentrations, were determined from the slope of a semi-logarithmic plot of inhibition versus time, and re-plotted against inhibitor concentration (nM). The experimental values were fitted into a hyperbolic function using GraphPad Prism 8 ([…]), to obtain the KI, kinact, and kinact/KI, as described previously.12 […]
(Thermo Fisher Scientific) using gold-coated glass needles. […]
In general terms: ADP-Glo turns the ADP formed in a reaction into a luminescent signal.

The test system of a further test is H1299. Description: Multi cell line growth assay (CellTiter-Glo, 72 h). Format: cell-based, human. Particulars: Homo sapiens, NCI-H1299, Bone marrow (so in the source), ND = no growth inhibition observed.

Chain of PDPK1 (O15530 whole entry): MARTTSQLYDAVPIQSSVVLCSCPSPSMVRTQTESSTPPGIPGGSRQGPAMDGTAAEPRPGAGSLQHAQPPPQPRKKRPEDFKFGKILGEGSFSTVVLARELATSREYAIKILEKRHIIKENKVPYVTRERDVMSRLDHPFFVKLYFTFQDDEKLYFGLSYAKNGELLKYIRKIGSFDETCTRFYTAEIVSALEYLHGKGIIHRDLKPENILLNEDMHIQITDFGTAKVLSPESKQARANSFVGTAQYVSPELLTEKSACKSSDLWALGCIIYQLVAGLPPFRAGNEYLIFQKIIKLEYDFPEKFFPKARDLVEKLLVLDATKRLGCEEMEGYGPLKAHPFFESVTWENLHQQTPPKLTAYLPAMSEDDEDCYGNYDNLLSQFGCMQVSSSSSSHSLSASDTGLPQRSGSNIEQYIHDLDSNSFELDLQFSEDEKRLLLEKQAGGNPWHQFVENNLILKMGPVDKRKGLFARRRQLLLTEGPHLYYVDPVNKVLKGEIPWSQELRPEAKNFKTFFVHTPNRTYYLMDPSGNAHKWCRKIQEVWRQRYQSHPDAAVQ
Chain of PIK3CA (P42336 whole entry): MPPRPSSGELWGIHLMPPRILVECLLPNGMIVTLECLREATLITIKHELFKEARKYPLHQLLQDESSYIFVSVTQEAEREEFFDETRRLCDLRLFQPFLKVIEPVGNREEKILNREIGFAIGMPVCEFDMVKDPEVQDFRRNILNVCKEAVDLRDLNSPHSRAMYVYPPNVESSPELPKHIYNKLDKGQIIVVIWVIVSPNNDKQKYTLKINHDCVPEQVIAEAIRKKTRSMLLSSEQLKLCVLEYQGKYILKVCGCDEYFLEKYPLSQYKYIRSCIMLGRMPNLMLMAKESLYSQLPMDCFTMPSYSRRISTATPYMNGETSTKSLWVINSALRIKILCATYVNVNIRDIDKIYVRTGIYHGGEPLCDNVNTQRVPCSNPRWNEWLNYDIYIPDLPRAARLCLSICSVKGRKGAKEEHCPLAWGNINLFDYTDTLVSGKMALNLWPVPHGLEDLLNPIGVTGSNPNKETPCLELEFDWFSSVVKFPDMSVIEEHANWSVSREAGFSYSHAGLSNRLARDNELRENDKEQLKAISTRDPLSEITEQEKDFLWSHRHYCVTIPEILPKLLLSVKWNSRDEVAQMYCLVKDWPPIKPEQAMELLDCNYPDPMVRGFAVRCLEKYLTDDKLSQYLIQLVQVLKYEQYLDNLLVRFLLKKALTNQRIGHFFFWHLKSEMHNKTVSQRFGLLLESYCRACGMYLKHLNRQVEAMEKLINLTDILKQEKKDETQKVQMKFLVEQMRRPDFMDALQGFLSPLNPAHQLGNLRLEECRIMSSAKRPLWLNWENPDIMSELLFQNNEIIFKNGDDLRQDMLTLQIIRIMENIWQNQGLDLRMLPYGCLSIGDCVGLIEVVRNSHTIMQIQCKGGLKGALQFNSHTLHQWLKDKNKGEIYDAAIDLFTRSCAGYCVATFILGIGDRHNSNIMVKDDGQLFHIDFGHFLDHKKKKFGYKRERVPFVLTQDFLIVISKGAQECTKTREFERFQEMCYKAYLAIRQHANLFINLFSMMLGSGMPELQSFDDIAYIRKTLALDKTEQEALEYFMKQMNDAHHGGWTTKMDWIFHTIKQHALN
Chain of PIK3CD (O00329 whole entry): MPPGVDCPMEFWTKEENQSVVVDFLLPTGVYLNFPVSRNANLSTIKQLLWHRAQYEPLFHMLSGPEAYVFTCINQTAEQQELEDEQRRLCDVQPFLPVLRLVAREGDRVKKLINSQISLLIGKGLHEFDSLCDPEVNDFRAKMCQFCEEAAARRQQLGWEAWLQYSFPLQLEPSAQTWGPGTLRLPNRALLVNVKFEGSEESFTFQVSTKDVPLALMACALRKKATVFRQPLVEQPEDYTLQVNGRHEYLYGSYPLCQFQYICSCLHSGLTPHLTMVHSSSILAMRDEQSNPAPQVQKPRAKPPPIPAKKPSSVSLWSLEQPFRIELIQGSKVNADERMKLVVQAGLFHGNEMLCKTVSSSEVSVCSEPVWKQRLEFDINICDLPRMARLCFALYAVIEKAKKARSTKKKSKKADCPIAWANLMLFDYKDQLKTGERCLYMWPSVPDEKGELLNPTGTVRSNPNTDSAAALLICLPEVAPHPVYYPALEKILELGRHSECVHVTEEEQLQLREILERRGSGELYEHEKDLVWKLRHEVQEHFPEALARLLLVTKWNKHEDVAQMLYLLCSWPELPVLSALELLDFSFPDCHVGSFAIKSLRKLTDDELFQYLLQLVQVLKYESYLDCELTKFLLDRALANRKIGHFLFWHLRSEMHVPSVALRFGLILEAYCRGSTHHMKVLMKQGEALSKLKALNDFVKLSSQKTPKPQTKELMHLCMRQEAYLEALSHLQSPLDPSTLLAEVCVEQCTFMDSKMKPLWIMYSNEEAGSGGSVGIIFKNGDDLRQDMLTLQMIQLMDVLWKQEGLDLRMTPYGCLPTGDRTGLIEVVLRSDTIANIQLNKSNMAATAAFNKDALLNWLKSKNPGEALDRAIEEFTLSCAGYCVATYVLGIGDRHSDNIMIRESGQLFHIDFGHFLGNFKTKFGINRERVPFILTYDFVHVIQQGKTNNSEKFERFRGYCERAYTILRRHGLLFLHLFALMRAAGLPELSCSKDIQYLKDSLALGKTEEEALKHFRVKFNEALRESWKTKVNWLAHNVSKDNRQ
Chain of STK11 (Q15831 whole entry): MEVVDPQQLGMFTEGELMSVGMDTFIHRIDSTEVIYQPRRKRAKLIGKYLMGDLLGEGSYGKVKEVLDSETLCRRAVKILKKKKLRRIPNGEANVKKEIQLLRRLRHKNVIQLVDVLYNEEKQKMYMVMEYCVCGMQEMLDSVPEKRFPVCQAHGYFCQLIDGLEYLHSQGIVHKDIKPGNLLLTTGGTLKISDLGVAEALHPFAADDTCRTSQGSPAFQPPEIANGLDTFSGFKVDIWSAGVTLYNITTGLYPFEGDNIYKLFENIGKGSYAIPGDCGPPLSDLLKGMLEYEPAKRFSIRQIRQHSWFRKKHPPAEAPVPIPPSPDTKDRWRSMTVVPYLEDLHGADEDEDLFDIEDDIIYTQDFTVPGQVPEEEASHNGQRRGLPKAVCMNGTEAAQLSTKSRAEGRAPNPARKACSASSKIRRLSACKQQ
Chain of AXL (P30530 26-894): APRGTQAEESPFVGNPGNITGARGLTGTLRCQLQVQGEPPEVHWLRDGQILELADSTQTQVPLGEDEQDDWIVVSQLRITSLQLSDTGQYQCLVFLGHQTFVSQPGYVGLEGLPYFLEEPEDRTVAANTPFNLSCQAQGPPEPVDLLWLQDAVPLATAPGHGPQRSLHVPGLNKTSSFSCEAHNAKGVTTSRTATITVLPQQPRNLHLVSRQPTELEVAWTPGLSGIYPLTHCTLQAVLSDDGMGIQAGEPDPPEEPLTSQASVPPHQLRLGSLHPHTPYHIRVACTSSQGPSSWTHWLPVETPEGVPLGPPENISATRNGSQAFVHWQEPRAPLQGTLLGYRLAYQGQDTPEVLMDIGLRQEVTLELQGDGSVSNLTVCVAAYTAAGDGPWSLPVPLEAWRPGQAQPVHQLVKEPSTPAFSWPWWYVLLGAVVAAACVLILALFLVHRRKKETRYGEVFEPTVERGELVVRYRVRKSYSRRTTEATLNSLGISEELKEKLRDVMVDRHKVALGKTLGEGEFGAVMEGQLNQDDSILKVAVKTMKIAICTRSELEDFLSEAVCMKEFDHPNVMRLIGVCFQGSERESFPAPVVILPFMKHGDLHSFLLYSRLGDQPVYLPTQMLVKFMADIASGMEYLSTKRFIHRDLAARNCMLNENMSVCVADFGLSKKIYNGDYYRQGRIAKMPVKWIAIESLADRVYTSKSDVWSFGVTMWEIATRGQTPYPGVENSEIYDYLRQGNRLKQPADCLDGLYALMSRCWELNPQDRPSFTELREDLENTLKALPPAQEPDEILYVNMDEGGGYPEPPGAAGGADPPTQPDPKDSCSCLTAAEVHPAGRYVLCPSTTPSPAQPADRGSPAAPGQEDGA
Experimental for ABL1-phosphorylated: (§1) Therefore, we included the whole TEC, EGFR and JAK family in our screening, and the Src family and Lkb1, which also have a cysteine within the same sequence alignment. We also included kinases involved in upstream (Src, FAK, PI3K, mTOR, PDK1) and downstream (Akt, PAK1, TAM) regulation of BMX signaling pathway and non-receptor tyrosine protein kinase Abl.
(§2) Kinome selectivity was performed with DiscoverX KINOMEscan™ technology.
Experimental for AXL: as §1, §2
Experimental for PDPK1: as §1, §2
Experimental for PIK3CA: as §1, §2
Experimental for PIK3CD: as §1, §2
Experimental for STK11: as §1, §2
Experimental for YES1: Therefore, we included the whole TEC, EGFR and JAK family in our screening, and the Src family and Lkb1, which also have a cysteine within the same sequence alignment.
as §2

`C=CC(=O)Nc1cc(C)cc(-n2c(=O)ccc3cnc4cc(-c5ccc(NS(C)(=O)=O)cc5)ccc4c32)c1` [JS25]: the remaining binding at 1 µM at PIK3CD worked out at 100%; on ABL1-phosphorylated, 100%; at PDPK1, 92%; on YES1, 85%; at AXL, 93%; on PIK3CA, 79%. The remaining binding at 1 µM on STK11 was 52%.
For the molecule `C=CC(=O)Nc1cc(-n2c(=O)ccc3cnc4cc(-c5ccc(NS(C)(=O)=O)cc5)ccc4c32)ccc1C` [JS24], the k inact at BMX is 0.335 min⁻¹ and 0.335 ± 0.001 min⁻¹. For the same molecule, in the test with H1299, the GI50 came out at 7.28 ± 0.37 µM.

What is called GI50 is the concentration giving 50% growth inhibition.
